Reference: US8476197B2, “Aminopropenoates as fungicides” (priority 2009, dated 2013)
Marks after values point to notes of the source that are not given here.

Details: pH 2.3

| Log P | SMILES |
| --- | --- |
| 3.7^[c]; 3.7^[b] | CCOC(=O)C(C#N)=C(NC(C)C(C)C)c1cccnc1-c1cccs1 (centres unmarked) [Compound 1505] |
| 3.55 | CCOC(=O)C(C#N)=C(NC(C)C(C)C)c1cccnc1-c1ccsc1 (centres unmarked) [Compound 1519] |
| 3.7 | CCOC(=O)C(C#N)=C(NC(C)C(C)C)c1cccnc1-c1ccc(F)cc1 (centres unmarked) [Compound 1541] |
| 4.07 | CCOC(=O)C(C#N)=C(NC(C)C(C)C)c1cccnc1-c1cccc(Cl)c1 (centres unmarked) [Compound 1568] |
| 3.08^[c]; 3.08^[b] | CCOC(=O)C(C#N)=C(NC(C)C1CC1)c1cccnc1OCc1ccccc1 (centres unmarked) [Compound 1570] |
| 4.39 | CCOC(=O)C(C#N)=C(NC(C)C(C)C)c1cccnc1-c1ccc(OC(F)(F)F)cc1 (centres unmarked) [Compound 1586] |
| 3.01^[c]; 3.01^[b] | CCOC(=O)C(C#N)=C(Nc1ccn(C)c1SC)c1cccnc1Cl [Compound 1592] |
| 3 | CCOC(=O)C(C#N)=C(Nc1ccc(F)c(F)c1)c1cccnc1Cl [Compound 1597] |

| SMILES | Log P |
| --- | --- |
| CCOC(=O)C(C#N)=C(NC(C)C(C)C)c1cccnc1 (centres unmarked) [Compound 1504] | 2.61 |
| CCOC(=O)C(C#N)=C(NC(C)C(C)C)c1cccnc1Br (centres unmarked) [Compound 1545] | 3.27 |
| CCOC(=O)C(C#N)=C(Nc1ccccc1F)c1cccnc1Cl [Compound 1590] | 2.87 |

Same assay, conditions: pH 2.7

| Log P | SMILES |
| --- | --- |
| 2.73^[a] | COCCNC(=O)C(C#N)=C(NC(C)C(C)C)c1cccnc1Cl (centres unmarked) [Compound 1492] |
| 3.9^[a] | CC(C)C(C)NC(=C(C#N)C(=O)NC1CCCC1)c1cccnc1Cl (centres unmarked) [Compound 1493] |
| 3.74^[a] | CC(C)CNC(=O)C(C#N)=C(NC(C)C(C)C)c1cccnc1Cl (centres unmarked) [Compound 1494] |
| 3.29^[a] | CCOC(=O)C(C#N)=C(NC(C)C(C)C)c1ccnc2ccccc12 (centres unmarked) [Compound 1496] |
| 2.88^[a] | CCOC(=O)C(C#N)=C(NC1CCC1)c1ccnc2ccccc12 [Compound 1498] |
| 2.5^[a] | CCOC(=O)C(C#N)=C(NC(C)COC)c1ccnc2ccccc12 (centres unmarked) [Compound 1499] |
| 2.42^[a] | CCOC(=O)C(C#N)=C(NC(C)c1nccs1)c1cnn(C)c1Cl (centres unmarked) [Compound 1501] |
| 2.5^[a] | CCOC(=O)C(C#N)=C(NC(C)c1nccs1)c1ccnc2ccccc12 (centres unmarked) [Compound 1502] |
| 1.8^[a] | CCOC(=O)C(C#N)=C(NC(C)C(=O)NC)c1ccnc2ccccc12 (centres unmarked) [Compound 1503] |
| 3.27^[a] | CC(C)C(C)NC(=C(C#N)C(=O)N1CCSCC1)c1cccnc1Cl (centres unmarked) [Compound 1507] |
| 3.48^[a] | CC(C)C(C)NC(=C(C#N)C(=O)N1CCCCC1)c1cccnc1Cl (centres unmarked) [Compound 1508] |
| 3.29^[a] | CSCCNC(=O)C(C#N)=C(NC(C)C(C)C)c1cccnc1Cl (centres unmarked) [Compound 1510] |
| 4.01^[a] | CC(C)C(C)NC(=C(C#N)C(=O)NC1CCC1C)c1cccnc1Cl (centres unmarked) [Compound 1511] |
| 4.01^[a] | CC1CC(NC(=O)C(C#N)=C(NC(C)C(C)C)c2cccnc2Cl)C1 (centres unmarked) [Compound 1512] |
| 3.15^[a] | CCN(OC)C(=O)C(C#N)=C(NC(C)C(C)C)c1cccnc1Cl (centres unmarked) [Compound 1514] |
| 1.58^[a] | CC(C)C(C)NC(=C(C#N)C(=O)Nc1ccncc1)c1cccnc1Cl (centres unmarked) [Compound 1515] |
| 3.21^[a] | CC(C)C(C)NC(=C(C#N)C(=O)Nc1ccccn1)c1cccnc1Cl (centres unmarked) [Compound 1516] |
| 1.94^[a] | CC(C)C(C)NC(=C(C#N)C(=O)NCc1ccccn1)c1cccnc1Cl (centres unmarked) [Compound 1517] |
| 2.58^[a] | CC(C)C(C)NC(=C(C#N)C(=O)N1CCOCC1)c1cccnc1Cl (centres unmarked) [Compound 1518] |
| 3.37^[a] | C#CC(NC(=C(C#N)C(=O)OCC)c1cccnc1Cl)C(C)C (centres unmarked) [Compound 1521] |

| Log P | SMILES |
| --- | --- |
| 3.87^[a] | CCOC(=O)C(C#N)=C(NC(C)[Si](C)(C)C)c1cccnc1Cl (centres unmarked) [Compound 1522] |
| 3.73^[a] | CCOC(=O)C(C#N)=C(NC(C)c1c(Cl)cccc1Cl)c1cccnc1Cl (centres unmarked) [Compound 1523] |
| 2.84^[a] | CCOC(=O)C(C#N)=C(NC(C)c1csc(C)n1)c1cccnc1Cl (centres unmarked) [Compound 1524] |
| 3.76^[a] | CCOC(=O)C(C#N)=C(NC(C)C(C)CC)c1cccnc1Cl (centres unmarked) [Compound 1525] |
| 1.91^[a] | CCOC(=O)C(C#N)=C(NCc1ccc(C)c(C)n1)c1cccnc1Cl [Compound 1526] |
| 2.8^[a] | CCOC(=O)C(C#N)=C(NC(C)C(C)OC)c1cccnc1Cl (centres unmarked) [Compound 1527] |
| 2.63^[a] | CCOC(=O)C(C#N)=C(NC(C)c1cncnc1C(F)(F)F)c1cccnc1Cl (centres unmarked) [Compound 1528] |
| 2.35^[a] | CCOC(=O)C(C#N)=C(NC(C)c1cn2ccsc2n1)c1cccnc1Cl (centres unmarked) [Compound 1529] |
| 3.89^[a] | CCOC(=O)C(C#N)=C(NC(C)c1ccccc1Br)c1cccnc1Cl (centres unmarked) [Compound 1530] |
| 2.71^[a] | CCOC(=O)C(C#N)=C(NC(C)C1CCCO1)c1cccnc1Cl (centres unmarked) [Compound 1531] |
| 3.46^[a] | CCOC(=O)C(C#N)=C(NC(C)C1(C)CC1)c1cccnc1Cl (centres unmarked) [Compound 1533] |
| 3.96^[a] | CCOC(=O)C(C#N)=C(NC(C)c1c(C)cccc1C)c1cccnc1Cl (centres unmarked) [Compound 1534] |
| 3.27^[a] | CCOC(=O)C(C#N)=C(NC(C)c1c(F)cccc1F)c1cccnc1Cl (centres unmarked) [Compound 1535] |
| 2.68^[a] | CCOC(=O)C(C#N)=C(Nc1cccc2cn(C)nc12)c1cccnc1Cl [Compound 1537] |
| 1.66^[a] | CCOC(=O)C(C#N)=C(NCc1ccc(C)c(C)n1)c1cnn(C)c1Cl [Compound 1542] |
| 3.73^[a] | CCOC(=O)C(C#N)=C(NC1(c2ccccc2)CCC1)c1cccnc1Cl [Compound 1550] |
| 2.61^[a] | CCOC(=O)C(C#N)=C(Nc1cccc2scnc12)c1cccnc1Cl [Compound 1553] |
| 3^[a] | CCOC(=O)C(C#N)=C(NCc1ncccc1C(F)(F)F)c1cccnc1Cl [Compound 1554] |
| 3^[a] | CCOC(=O)C(C#N)=C(Nc1cccc2oc(C)nc12)c1cccnc1Cl [Compound 1555] |
| 3.17^[a] | CCOC(=O)C(C#N)=C(Nc1cccc2nsnc12)c1cccnc1Cl [Compound 1556] |

| Log P | SMILES |
| --- | --- |
| 3.78^[a] | CCOC(=O)C(C#N)=C(NC(C)c1c(Cl)cccc1Cl)c1cnn(C)c1Cl (centres unmarked) [Compound 1559] |
| 3.46^[a] | CCOC(=O)C(C#N)=C(NC(C)C(C)C)c1cn(C)nc1C(Cl)Cl (centres unmarked) [Compound 1562] |
| 2.76^[a] | CCOC(=O)C(C#N)=C(NC(C)COC)c1cn(C)nc1C(Cl)Cl (centres unmarked) [Compound 1567] |
| 1.37^[a] | CC(NC(=C(C#N)C(=O)O)c1cccnc1Cl)c1ccccn1 (centres unmarked) [Compound 1571] |
| 2.66^[a] | C=CCOC(=O)C(C#N)=C(NC(C)c1ccccn1)c1cccnc1Cl (centres unmarked) [Compound 1572] |
| 3.9^[a] | CCOC(=O)C(C#N)=C(NC(C)C(=O)NC)c1cn(C)nc1C(Cl)Cl (centres unmarked) [Compound 1573] |
| 3.94^[a] | CCOC(=O)C(C#N)=C(NC(C)c1c(Cl)cccc1Cl)c1cn(C)nc1C(Cl)Cl (centres unmarked) [Compound 1574] |
| 2.07^[a] | CCOC(=O)C(C#N)=C(NCc1ccc(C)c(C)n1)c1cn(C)nc1C(Cl)Cl [Compound 1575] |
| 2.98^[a] | CCOC(=O)C(C#N)=C(NC(C)C(C)OC)c1cn(C)nc1C(Cl)Cl (centres unmarked) [Compound 1576] |
| 3.8^[a] | CCOC(=O)C(C#N)=C(NC(C)C(C)CC)c1cn(C)nc1C(Cl)Cl (centres unmarked) [Compound 1577] |
| 4.68^[a] | CCOC(=O)C(C#N)=C(NC(C)C(C)C)c1cc(Cl)sc1Cl (centres unmarked) [Compound 1580] |
| 4.26^[a] | CCOC(=O)C(C#N)=C(NC1CCC1)c1cc(Cl)sc1Cl [Compound 1581] |
| 1.46^[a] | CONC(=O)C(C#N)=C(NC(C)c1ccccn1)c1cccnc1Cl (centres unmarked) [Compound 1583] |
| 4.43^[a] | CCOC(=O)C(C#N)=C(NC(C)C1CC1)c1cc(Cl)sc1Cl (centres unmarked) [Compound 1587] |
| 3.78^[a] | CCOC(=O)C(C#N)=C(NC(C)COC)c1cc(Cl)sc1Cl (centres unmarked) [Compound 1588] |
| 5.03^[a] | CCOC(=O)C(C#N)=C(NC(C)C1CCC1)c1cc(Cl)sc1Cl (centres unmarked) [Compound 1589] |
| 2.76^[a] | CC(NC(=C(C#N)C(=O)N1CCSC1C)c1cccnc1Cl)c1nccs1 (centres unmarked) [Compound 1594] |
| 1.84^[a] | CC(NC(=C(C#N)C(=O)N1CCOCC1)c1cccnc1Cl)c1nccs1 (centres unmarked) [Compound 1595] |
| 1.9^[a] | COC(=O)CNC(=O)C(C#N)=C(NC(C)c1nccs1)c1cccnc1Cl (centres unmarked) [Compound 1596] |
| 1.8^[a] | CCONC(=O)C(C#N)=C(NC(C)c1nccs1)c1cccnc1Cl (centres unmarked) [Compound 1598] |

| SMILES | Log P |
| --- | --- |
| CC(C)C(C)NC(=C(C#N)C(=O)N1CCSC1)c1cccnc1Cl (centres unmarked) [Compound 1509] | 3.19^[a] |
| CC(C)C(C)NC(=C(C#N)C(=O)N(C)C1CC1)c1cccnc1Cl (centres unmarked) [Compound 1513] | 3.02^[a] |
| CCOC(=O)C(C#N)=C(NC(C)c1ncc(C)s1)c1cccnc1Cl (centres unmarked) [Compound 1520] | 2.92^[a] |
| CCOC(=O)C(C#N)=C(NC(C)c1ccccc1F)c1cccnc1Cl (centres unmarked) [Compound 1532] | 3.48^[a] |
| CCOC(=O)C(C#N)=C(NC(C)c1nc(C)cs1)c1cccnc1Cl (centres unmarked) [Compound 1536] | 2.88^[a] |
| CCOC(=O)C(C#N)=C(NC(C)C(=O)OCc1ccccc1)c1cccnc1Cl (centres unmarked) [Compound 1539] | 3.53^[a] |
| CCOC(=O)C(C#N)=C(NC1(C(=O)OCC)CCC1)c1cccnc1Cl [Compound 1551] | 3.17^[a] |
| CCOC(=O)C(C#N)=C(NC(C)c1nccs1)c1cn(C)nc1C(Cl)Cl (centres unmarked) [Compound 1564] | 2.75^[a] |
| CCOC(=O)C(C#N)=C(NC1CCC1)c1cn(C)nc1C(Cl)Cl [Compound 1566] | 3.09^[a] |
| CCOC(=O)C(C#N)=C(NC(C)c1nccs1)c1cc(Cl)sc1Cl (centres unmarked) [Compound 1578] | 3.58^[a] |
| CCNC(=O)C(C#N)=C(NC(C)c1ccccn1)c1cccnc1Cl (centres unmarked) [Compound 1584] | 1.93^[a] |
| CC(C)C(C)NC(=C(C#N)C(=O)NCCF)c1cccnc1Cl (centres unmarked) [Compound 1593] | 2.76^[a] |

Same assay, conditions: pH 7.5

| Log P | SMILES |
| --- | --- |
| 3.7^[c]; 3.7^[b] | CCOC(=O)C(C#N)=C(NC(C)C(C)C)c1cccnc1-c1cccs1 (centres unmarked) [Compound 1505] |
| 3.57 | CCOC(=O)C(C#N)=C(NC(C)C(C)C)c1cccnc1-c1ccsc1 (centres unmarked) [Compound 1519] |
| 4.09 | CCOC(=O)C(C#N)=C(NC(C)C(C)C)c1cccnc1-c1cccc(Cl)c1 (centres unmarked) [Compound 1568] |
| 3.08^[c]; 3.08^[b] | CCOC(=O)C(C#N)=C(NC(C)C1CC1)c1cccnc1OCc1ccccc1 (centres unmarked) [Compound 1570] |
| 4.41 | CCOC(=O)C(C#N)=C(NC(C)C(C)C)c1cccnc1-c1ccc(OC(F)(F)F)cc1 (centres unmarked) [Compound 1586] |
| 3.01^[c]; 3.01^[b] | CCOC(=O)C(C#N)=C(Nc1ccn(C)c1SC)c1cccnc1Cl [Compound 1592] |
| 2.96 | CCOC(=O)C(C#N)=C(Nc1ccc(F)c(F)c1)c1cccnc1Cl [Compound 1597] |

| SMILES | Log P |
| --- | --- |
| CCOC(=O)C(C#N)=C(NC(C)C(C)C)c1cccnc1 (centres unmarked) [Compound 1504] | 2.67 |
| CCOC(=O)C(C#N)=C(Nc1ccccc1F)c1cccnc1Cl [Compound 1590] | 2.85 |
